ChEMBL document CHEMBL5303573, “Mapping human microbiome drug metabolism by gut bacteria and their genes” (Nature, 2019)

Tests used:
[1] = The drug is tested on Ruminococcus torques strain: ATCC27756 for biotransformation. The drug concentrations were measured before and after a 12-h incubation by liquid-chromatography-coupled mass spectrometry (LC–MS); format: ADME; parameters: dose 2 uM, timepoint 0 vs 12 hours; details: 2 µM
[2] = The drug is tested on Bifidobacterium ruminantium strain: fecal isolate for biotransformation. The drug concentrations were measured before and after a 12-h incubation by liquid-chromatography-coupled mass spectrometry (LC–MS); details: 2 µM
[3] = The drug is tested on Clostridium asparagiforme strain: DSM15981 for biotransformation. The drug concentrations were measured before and after a 12-h incubation by liquid-chromatography-coupled mass spectrometry (LC–MS); format: ADME; parameters: dose 2 uM, timepoint 0 vs 12 hours; details: enterocloster asparagiformis, 2 µM
[4] = bacteroides stercoris, 12 h, 2 µM
Description: The drug is tested on Bacteroides stercoris strain: ATCC43183 for biotransformation. The drug concentrations were measured before and after a 12-h incubation by liquid-chromatography-coupled mass spectrometry (LC–MS)

[5] = parabacteroides johnsonii, 12 h, 2 µM
Description: The drug is tested on Parabacteroides johnsonii strain: DSM18315 for biotransformation. The drug concentrations were measured before and after a 12-h incubation by liquid-chromatography-coupled mass spectrometry (LC–MS)

[6] = The drug is tested on Odoribacter splanchnicus strain: fecal isolate for biotransformation. The drug concentrations were measured before and after a 12-h incubation by liquid-chromatography-coupled mass spectrometry (LC–MS); details: 2 µM
[7] = bifidobacterium adolescentis, 12 h, 2 µM
Description: The drug is tested on Bifidobacterium adolescentis strain: ATCC 15703 for biotransformation. The drug concentrations were measured before and after a 12-h incubation by liquid-chromatography-coupled mass spectrometry (LC–MS)

[8] = bacteroides eggerthii, 12 h, 2 µM
Description: The drug is tested on Bacteroides eggerthii strain: DSM20697 for biotransformation. The drug concentrations were measured before and after a 12-h incubation by liquid-chromatography-coupled mass spectrometry (LC–MS)

[9] = limosilactobacillus reuteri cf48-3a, 12 h, 2 µM
Description: The drug is tested on Lactobacillus reuteri CF48-3A strain: BEI HM-102 for biotransformation. The drug concentrations were measured before and after a 12-h incubation by liquid-chromatography-coupled mass spectrometry (LC–MS)

[10] = akkermansia muciniphila, 12 h, 2 µM
Description: The drug is tested on Akkermansia muciniphila strain: ATCC BAA-835 for biotransformation. The drug concentrations were measured before and after a 12-h incubation by liquid-chromatography-coupled mass spectrometry (LC–MS)

[11] = bacteroides fragilis, 12 h, 2 µM
Description: The drug is tested on Bacteroides fragilis strain: DS-208 for biotransformation. The drug concentrations were measured before and after a 12-h incubation by liquid-chromatography-coupled mass spectrometry (LC–MS)

[12] = roseburia intestinalis, 12 h, 2 µM
Description: The drug is tested on Roseburia intestinalis strain: L1-82 for biotransformation. The drug concentrations were measured before and after a 12-h incubation by liquid-chromatography-coupled mass spectrometry (LC–MS)

[13] = The drug is tested on Eubacterium rectale strain: ATCC33656 for biotransformation. The drug concentrations were measured before and after a 12-h incubation by liquid-chromatography-coupled mass spectrometry (LC–MS); details: agathobacter rectalis, 2 µM
[14] = The drug is tested on Providencia rettgeri strain: DSM1131 for biotransformation. The drug concentrations were measured before and after a 12-h incubation by liquid-chromatography-coupled mass spectrometry (LC–MS); format: ADME; parameters: dose 2 uM, timepoint 0 vs 12 hours; details: 2 µM
[15] = The drug is tested on Clostridium sporogenes strain: ATCC15579 for biotransformation. The drug concentrations were measured before and after a 12-h incubation by liquid-chromatography-coupled mass spectrometry (LC–MS); details: 2 µM
[16] = bacteroides fragilis, 12 h, 2 µM; remark: listed apart in the source
Description: The drug is tested on Bacteroides fragilis strain: 3397 (T10) for biotransformation. The drug concentrations were measured before and after a 12-h incubation by liquid-chromatography-coupled mass spectrometry (LC–MS)

[17] = The drug is tested on Coprococcus comes strain: ATCC27758 for biotransformation. The drug concentrations were measured before and after a 12-h incubation by liquid-chromatography-coupled mass spectrometry (LC–MS); format: ADME; parameters: dose 2 uM, timepoint 0 vs 12 hours; details: 2 µM
[18] = The drug is tested on Bacteroides xylanisolvens strain: DSM18836 for biotransformation. The drug concentrations were measured before and after a 12-h incubation by liquid-chromatography-coupled mass spectrometry (LC–MS); details: 2 µM
[19] = The drug is tested on Bacteroides vulgatus strain: ATCC8482 for biotransformation. The drug concentrations were measured before and after a 12-h incubation by liquid-chromatography-coupled mass spectrometry (LC–MS); details: phocaeicola vulgatus, 2 µM
[20] = The drug is tested on Bacteroides uniformis strain: ATCC8492 for biotransformation. The drug concentrations were measured before and after a 12-h incubation by liquid-chromatography-coupled mass spectrometry (LC–MS); details: 2 µM

| SMILES | Bacterial Biotransformation [1] | Bacterial Biotransformation [2] | Bacterial Biotransformation [3] | Bacterial Biotransformation [4] | Bacterial Biotransformation [5] | Bacterial Biotransformation [6] | Bacterial Biotransformation [7] | Bacterial Biotransformation [8] | Bacterial Biotransformation [9] | Bacterial Biotransformation [10] | Bacterial Biotransformation [11] | Bacterial Biotransformation [12] | Bacterial Biotransformation [13] | Bacterial Biotransformation [14] | Bacterial Biotransformation [15] | Bacterial Biotransformation [16] | Bacterial Biotransformation [17] | Bacterial Biotransformation [18] | Bacterial Biotransformation [19] | Bacterial Biotransformation [20] |
| --- | --- | --- | --- | --- | --- | --- | --- | --- | --- | --- | --- | --- | --- | --- | --- | --- | --- | --- | --- | --- |
| CCN(CC)C(=O)C1(c2ccccc2)CC1CN (configuration not stated) | Compound NOT metabolized | Compound NOT metabolized | Compound NOT metabolized | Compound NOT metabolized | Compound NOT metabolized | Compound NOT metabolized | Compound NOT metabolized | Compound NOT metabolized | Compound NOT metabolized | Compound NOT metabolized | Compound NOT metabolized | Compound NOT metabolized | Compound NOT metabolized | Compound NOT metabolized | Compound NOT metabolized | Compound NOT metabolized | Compound NOT metabolized | Compound NOT metabolized | Compound NOT metabolized |  |
| CN1CCN(C(=O)O[C@H]2c3nccnc3C(=O)N2c2ccc(Cl)cn2)CC1 [ESZOPICLONE] | Compound NOT metabolized | Compound NOT metabolized | Compound NOT metabolized | Compound NOT metabolized | Compound metabolized | Compound metabolized |  | Compound NOT metabolized | Compound NOT metabolized |  |  | Compound NOT metabolized | Compound NOT metabolized | Compound NOT metabolized | Compound NOT metabolized |  | Compound NOT metabolized | Compound NOT metabolized | Compound metabolized | Compound NOT metabolized |
| O=C1[C@H](CC[C@H](O)c2ccc(F)cc2)[C@@H](c2ccc(O)cc2)N1c1ccc(F)cc1 [EZETIMIBE] | Compound NOT metabolized | Compound NOT metabolized | Compound NOT metabolized | Compound NOT metabolized | Compound NOT metabolized | Compound NOT metabolized |  | Compound NOT metabolized | Compound NOT metabolized | Compound NOT metabolized | Compound NOT metabolized | Compound NOT metabolized | Compound NOT metabolized | Compound NOT metabolized | Compound metabolized | Compound NOT metabolized | Compound NOT metabolized | Compound NOT metabolized |  | Compound metabolized |
| OCCN1CCN(CCCN2c3ccccc3Sc3ccc(C(F)(F)F)cc32)CC1 [FLUPHENAZINE] | Compound NOT metabolized | Compound NOT metabolized | Compound NOT metabolized | Compound metabolized | Compound metabolized |  | Compound NOT metabolized | Compound NOT metabolized | Compound metabolized | Compound NOT metabolized | Compound metabolized | Compound metabolized | Compound metabolized | Compound NOT metabolized | Compound NOT metabolized | Compound metabolized | Compound metabolized | Compound metabolized | Compound metabolized | Compound metabolized |
| CC1Cc2ccccc2N1NC(=O)c1ccc(Cl)c(S(N)(=O)=O)c1 (configuration not stated) [INDAPAMIDE] | Compound NOT metabolized | Compound NOT metabolized | Compound NOT metabolized | Compound NOT metabolized | Compound NOT metabolized | Compound NOT metabolized | Compound NOT metabolized | Compound NOT metabolized |  | Compound NOT metabolized | Compound NOT metabolized | Compound NOT metabolized | Compound NOT metabolized | Compound NOT metabolized | Compound NOT metabolized | Compound NOT metabolized | Compound NOT metabolized | Compound NOT metabolized | Compound NOT metabolized | Compound NOT metabolized |
| C#C[C@]1(O)CC[C@H]2[C@@H]3CCC4=CC(=O)CC[C@@H]4[C@H]3CC[C@@]21CC [LEVONORGESTREL] |  | Compound NOT metabolized | Compound NOT metabolized | Compound metabolized | Compound metabolized | Compound metabolized | Compound NOT metabolized | Compound NOT metabolized | Compound NOT metabolized | Compound NOT metabolized | Compound metabolized |  | Compound NOT metabolized | Compound NOT metabolized | Compound metabolized | Compound metabolized | Compound NOT metabolized | Compound metabolized | Compound metabolized | Compound metabolized |
| COCCc1ccc(OCC(O)CNC(C)C)cc1.COCCc1ccc(OCC(O)CNC(C)C)cc1.O=C(O)C(O)C(O)C(=O)O (configuration not stated) [METOPROLOL TARTRATE] | Compound NOT metabolized | Compound metabolized | Compound NOT metabolized |  | Compound NOT metabolized | Compound NOT metabolized | Compound NOT metabolized | Compound NOT metabolized | Compound NOT metabolized |  | Compound NOT metabolized | Compound NOT metabolized | Compound NOT metabolized | Compound NOT metabolized | Compound NOT metabolized | Compound NOT metabolized | Compound NOT metabolized |  | Compound NOT metabolized | Compound NOT metabolized |
| C#C[C@]1(OC(C)=O)CC[C@H]2[C@@H]3CCC4=CC(=O)CC[C@@H]4[C@H]3CC[C@@]21C [NORETHINDRONE ACETATE] | Compound metabolized | Compound NOT metabolized | Compound metabolized | Compound metabolized | Compound metabolized | Compound metabolized | Compound NOT metabolized | Compound metabolized | Compound NOT metabolized | Compound metabolized | Compound metabolized |  | Compound metabolized | Compound NOT metabolized | Compound metabolized | Compound metabolized | Compound NOT metabolized | Compound metabolized | Compound metabolized | Compound metabolized |
| O=C(O)CCc1nc(-c2ccccc2)c(-c2ccccc2)o1 [OXAPROZIN] | Compound NOT metabolized | Compound metabolized | Compound metabolized | Compound NOT metabolized | Compound metabolized | Compound metabolized | Compound NOT metabolized | Compound NOT metabolized | Compound NOT metabolized |  | Compound metabolized |  | Compound NOT metabolized | Compound NOT metabolized | Compound NOT metabolized |  | Compound NOT metabolized | Compound metabolized | Compound metabolized | Compound metabolized |
